Columns and labels:
Assay in all cases: viability relative to DMSO control (fraction); higher = less drug effect (more viable cells)
Details in all cases: 48 h
[1] = system: primary ALL patient cells (S088)
Summary of the method: (§1)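 Viability was measured as CellTiter-Glo luminescence relative to the median of 16 inner DMSO wells. Primary mononuclear tumour cells, fresh or cryopreserved, were Ficoll-isolated from blood or bone marrow or taken from processed lymph node. They were seeded at 4 × 10^4 cells per well into 384-well plates holding pre-plated compounds at five concentrations, one well each, and kept in RPMI-1640 with penicillin/streptomycin, L-glutamine and human serum at 37 °C and 5% CO2 for 48 h.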

[2] = system: primary AML patient cells (S072)
Summary of the method: as §1

[3] = system: primary AML patient cells (S056)
Summary of the method: as §1

[4] = system: primary CLL patient cells (S043)
Summary of the method: as §1

[5] = system: primary AML patient cells (S071)
Summary of the method: as §1

[6] = system: primary AML patient cells (S060)
Summary of the method: as §1

[7] = system: primary AML patient cells (S007)
Summary of the method: as §1

[8] = system: primary AML patient cells (S079)
Summary of the method: as §1

[9] = system: primary ALL patient cells (S048)
Summary of the method: as §1

[10] = system: primary AML patient cells (S089)
Summary of the method: as §1

[11] = system: primary CLL patient cells (S031)
Summary of the method: as §1

[12] = system: primary DLBCL patient cells (S082)
Summary of the method: as §1

[13] = system: primary AML patient cells (S027)
Summary of the method: as §1

[14] = system: primary MCL patient cells (S063)
Summary of the method: as §1

## CCN1CCN(Cc2ccc(Nc3ncc(F)c(-c4cc(F)c5nc(C)n(C(C)C)c5c4)n3)nc2)CC1
[1]; 0.024 µM
  viability: 0.616
[1]; 0.12 µM
  viability: 0.625
[1]; 0.6 µM
  viability: 0.517
[1]; 3 µM
  viability: 0.169
[1]; 15 µM
  viability: 0.012
[2]; 0.024 µM
  viability: 0.893
[2]; 0.12 µM
  viability: 1.03
[2]; 0.6 µM
  viability: 0.73
[2]; 3 µM
  viability: 0.251
[2]; 15 µM
  viability: 0.0132
[3]; 0.024 µM
  viability: 0.703
[3]; 0.12 µM
  viability: 0.546
[3]; 0.6 µM
  viability: 0.444
[3]; 3 µM
  viability: 0.136
[3]; 15 µM
  viability: 0.0316
[4]; 0.024 µM
  viability: 0.893
[4]; 0.12 µM
  viability: 1.05
[4]; 0.6 µM
  viability: 0.936
[4]; 3 µM
  viability: 0.58
[4]; 15 µM
  viability: 0.24
[5]; 0.024 µM
  viability: 0.728
[5]; 0.12 µM
  viability: 0.533
[5]; 0.6 µM
  viability: 0.39
[5]; 3 µM
  viability: 0.0958
[5]; 15 µM
  viability: 0.0535
[6]; 0.024 µM
  viability: 1.08
[6]; 0.12 µM
  viability: 1.01
[6]; 0.6 µM
  viability: 0.946
[6]; 3 µM
  viability: 0.534
[6]; 15 µM
  viability: 0.112
[7]; 0.024 µM
  viability: 0.759
[7]; 0.12 µM
  viability: 0.725
[7]; 0.6 µM
  viability: 0.782
[7]; 3 µM
  viability: 0.668
[7]; 15 µM
  viability: 0.0289
[8]; 0.024 µM
  viability: 0.969
[8]; 0.12 µM
  viability: 1.07
[8]; 0.6 µM
  viability: 1.03
[8]; 3 µM
  viability: 0.598
[8]; 15 µM
  viability: 0.0143
[9]; 0.024 µM
  viability: 0.546
[9]; 0.12 µM
  viability: 0.443
[9]; 0.6 µM
  viability: 0.263
[9]; 3 µM
  viability: 0.0396
[9]; 15 µM
  viability: 0.00487
[10]; 0.024 µM
  viability: 0.589
[10]; 0.12 µM
  viability: 0.962
[10]; 0.6 µM
  viability: 0.576
[10]; 3 µM
  viability: 0.0472
[10]; 15 µM
  viability: 0.0221
[11]; 0.024 µM
  viability: 0.841
[11]; 0.12 µM
  viability: 0.752
[11]; 0.6 µM
  viability: 0.771
[11]; 3 µM
  viability: 0.238
[11]; 15 µM
  viability: 0.00593
[12]; 0.024 µM
  viability: 0.915
[12]; 0.12 µM
  viability: 1.01
[12]; 0.6 µM
  viability: 1.19
[12]; 3 µM
  viability: 0.543
[12]; 15 µM
  viability: 0.0123
[13]; 0.024 µM
  viability: 1.05
[13]; 0.12 µM
  viability: 1.05
[13]; 0.6 µM
  viability: 0.953
[13]; 3 µM
  viability: 0.313
[13]; 15 µM
  viability: 0.018
[14]; 0.024 µM
  viability: 1.08
[14]; 0.12 µM
  viability: 0.99
[14]; 0.6 µM
  viability: 0.951
[14]; 3 µM
  viability: 0.605
[14]; 15 µM
  viability: 0.00904
